Test results taken from ChEMBL document CHEMBL1133385, “The de novo design and synthesis of cyclic urea inhibitors of factor Xa: optimization of the S4 ligand” (Bioorg Med Chem Lett, 2000).

What was measured:
[1] = target: Coagulation factor X (Homo sapiens, UniProt P00742); experiment: Inhibition of coagulation factor Xa
[2] = target: Prothrombin (Homo sapiens, UniProt P00734); experiment: Inhibitory activity against thrombin
[3] = target: Serine protease 1 (Homo sapiens, UniProt P07477); experiment: Inhibitory activity against trypsin
Sequence of Serine protease 1 (P07477 whole entry): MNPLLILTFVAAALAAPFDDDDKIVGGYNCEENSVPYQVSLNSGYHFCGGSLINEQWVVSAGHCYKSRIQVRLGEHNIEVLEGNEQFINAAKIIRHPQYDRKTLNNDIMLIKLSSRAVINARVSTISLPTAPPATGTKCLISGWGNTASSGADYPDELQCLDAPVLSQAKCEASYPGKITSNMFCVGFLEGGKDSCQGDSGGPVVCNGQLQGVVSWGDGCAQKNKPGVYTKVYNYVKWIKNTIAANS

[4] = The compound was evaluated for volume of distribution in rabbit at a dose of 5 mg/kg/h administered i.v.; type: ADME, organism-based, Oryctolagus cuniculus; set-up: route intravenous; settings: in vivo, iv
[5] = Plasma clearance was determined in rabbit at a dose of 5 mg/kg/h administered i.v.; type: ADME, organism-based, Oryctolagus cuniculus; set-up: route intravenous; settings: iv
[6] = Maximum plasma concentration was determined in rabbit at a dose of 5 mg/kg/h administered i.v.; type: ADME, organism-based, Oryctolagus cuniculus; set-up: dose 5 mg/kg/h, route intravenous; settings: iv
[7] = Half life period was determined; settings: rabbit

Sequence of Coagulation factor X (P00742 41-179 limits assumed): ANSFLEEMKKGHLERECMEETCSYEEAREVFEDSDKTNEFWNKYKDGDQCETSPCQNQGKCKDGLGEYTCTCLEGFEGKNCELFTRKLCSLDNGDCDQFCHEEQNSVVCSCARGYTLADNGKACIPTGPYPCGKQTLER
Sequence of Coagulation factor X (P00742 235-488 limits assumed): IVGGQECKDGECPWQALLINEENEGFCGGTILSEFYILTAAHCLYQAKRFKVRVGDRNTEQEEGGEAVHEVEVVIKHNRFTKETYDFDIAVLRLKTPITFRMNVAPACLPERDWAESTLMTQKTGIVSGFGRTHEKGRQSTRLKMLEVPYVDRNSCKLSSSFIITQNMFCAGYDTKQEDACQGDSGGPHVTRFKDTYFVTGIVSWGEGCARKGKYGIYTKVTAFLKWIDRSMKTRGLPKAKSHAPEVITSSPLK

SMILES	Ki [1] [nM]	Ki [2] [nM]	Ki [3] [nM]	Vd [4] [L/kg]	clearance [5] [mL/min/kg]	Cmax [6] [µM]	half-life [7] [min]
N=C(N)c1cccc(N2CCCCN(C3CCN(S(=O)(=O)c4ccc(N)cc4)CC3)C2=O)c1	71	6300	190				
N=C(N)c1cccc(N2CCCCN(C3CCN(S(=O)(=O)c4cccc(N)c4)CC3)C2=O)c1	200	2200					
N=C(N)c1cccc(N2CCCCN(C3CCN(S(=O)(=O)Cc4ccccn4)CC3)C2=O)c1.O=C(O)C(F)(F)F.O=C(O)C(F)(F)F	10	500	57	0.34	132	2.4	1.8
N=C(N)c1cccc(N2CCCCN(C3CCN(S(=O)(=O)c4ccccc4N)CC3)C2=O)c1	34	2400	130				
N=C(N)c1cccc(N2CCCCN(C3CCN(Cc4cccnc4)CC3)C2=O)c1	670	5300					
N=C(N)c1cccc(N2CCCCN(C3CCN(Cc4ccccn4)CC3)C2=O)c1	12	2600	120				
N=C(N)c1cccc(N2CCCCN(C3CCN(Cc4cccs4)CC3)C2=O)c1	80	1400	170				
Cl.N=C(N)c1cccc(N2CCCCN(C3CCN(S(=O)(=O)c4cccs4)CC3)C2=O)c1	12	1500	52	1.1	11.3	36	66
N=C(N)c1cccc(N2CCCCN(C3CCN(Cc4ccncc4)CC3)C2=O)c1	200	6800					

More lines, now with the values ahead:

Ki [1] [nM]	Ki [2] [nM]	Ki [3] [nM]	Vd [4] [L/kg]	clearance [5] [mL/min/kg]	Cmax [6] [µM]	half-life [7] [min]	SMILES
220	3600	1000					N=C(N)c1cccc(N2CCCCN(C3CCN(CCc4ccccc4)CC3)C2=O)c1
900	11800						N=C(N)c1cccc(N2CCCCN(C3CCN(C(=O)Cc4ccccc4)CC3)C2=O)c1
10	500	80	0.23	68.3	4.8	2.4	N=C(N)c1cccc(N2CCCCN(C3CCN(S(=O)(=O)Cc4ccccc4)CC3)C2=O)c1.O=C(O)C(F)(F)F
	> 21000						N=C(N)c1cccc(N2CCCCN(C3CCN(C(=O)c4ccccc4)CC3)C2=O)c1
24	1600	60					N=C(N)c1cccc(N2CCCCN(C3CCN(S(=O)(=O)c4ccccc4)CC3)C2=O)c1
